US9351955B2, “Compounds and pharmaceutical compositions thereof for the treatment of cystic fibrosis” (Galapagos NV, priority 2013, dated 2016)
pEC50: −log10 of the molar value.

Legend:
CFTR ΔF508 mutant = target: T1, CFTR ΔF508 mutant (Homo sapiens, UniProt P13569, DEL508-508); test: YFP-halide influx assay for the CFTR-ΔF508 mutation (384 well, CFBE41o- cells, FDSS/μCell); format: cell-based; details: forskolin 10.67 μM, fluorescence after 36 seconds, read-out: EC50 measured by YFP-halide influx assay for the CFTR-ΔF508
T1 construct: expressed in transfected cells; host or cells: CFBE41o- (adenoviral transduction)
Excerpt: 6.2. YFP-Halide Influx Assay for the CFTR-ΔF508 Mutation
The YFP halide influx assay measures the functionality of the cystic fibrosis Transmembrane Conductance regulator (CFTR) channels in the cystic fibrosis bronchial epithelium cell line CFBE41o-. The assay is used to evaluate the capacity of compounds to increase the open probability of existing CFTR channels in the membrane. It makes use of the observation that the yellow fluorescent protein (YFP) variant YFP H148Q, I152L has its fluorescence substantially quenched by halide ions like Cl— and I— (Galietta et al., 2001; Nagai et al., 2002).
For this purpose, CFBE410-cells are seeded in 384 well plates (3000 CFBE cells/well). One day after seeding, the CFBE cells are transduced with adenoviral vectors that direct the expression of the CFTR ΔF508 mutant and of the YFP reporter. Cells are incubated at 27° C., 5% CO2 for 24 hours so as to allow for the proper folding and migration to the membrane of the CFTR channel or treated with a CFTR modulator during 24 h at 37° C.
(§1) The I— induced quenching of fluorescence is recorded on an immediately after injection of I— for 2 min on an FDSS/μCell (Hamamatsu). The capacity of a compound to increase the channel opening is directly correlated with the decrease in fluorescence, and is expressed as (1−(fluorescence after 36 seconds (F)/fluorescence before injection (F0))) and an EC50 can be derived from a (1−F/F0) vs compound concentration plot.

CFTR G551D mutant = target: T2, CFTR G551D mutant (Homo sapiens, UniProt P13569, G551D); test: YFP-halide influx assay for the CFTR-G551D mutation (HEK293 cells); format: cell-based; details: HEK293 cells expressing CFTR G551D and YFP reporter; forskolin 10.67 μM; read-out: EC50 measured by YFP-halide influx assay for the CFTR-G551D
T2 construct: expressed in transfected cells; host or cells: HEK293 (reverse transfection with plasmids)
Excerpt: 6.3. YFP-Halide Influx Assay for the CFTR-G551D Mutation
The YFP halide influx assay measures the functionality of the cystic fibrosis Transmembrane Conductance regulator (CFTR) channels. The assay is used to evaluate the capacity of compounds to increase the channel opening of existing mutant CFTR channels in the membrane. It makes use of the observation that the yellow fluorescent protein (YFP) variant YFP H148Q, I152L, F47L has its fluorescence substantially quenched by halide ions like Cl^− and I^−. (Galietta et al., 2001)
For this purpose, HEK293-cells are seeded in 96 well plates. During seeding, the cells are reverse-transfected with plasmid vectors that direct the expression of the CFTR G551D mutant and of the YFP reporter. Cells are incubated at 37° C., 5% CO2 for 24 hours so as to allow for sufficient expression of the CFTR protein.
as §1, with “I^−-induced” for “I— induced”, “recorded” for “recorded on an”, “I^−” for “I—”, “7 seconds.” for “2 min on an FDSS/μCell (Hamamatsu).”, “7” for “36”

T2 sequence (P13569 whole entry G551D): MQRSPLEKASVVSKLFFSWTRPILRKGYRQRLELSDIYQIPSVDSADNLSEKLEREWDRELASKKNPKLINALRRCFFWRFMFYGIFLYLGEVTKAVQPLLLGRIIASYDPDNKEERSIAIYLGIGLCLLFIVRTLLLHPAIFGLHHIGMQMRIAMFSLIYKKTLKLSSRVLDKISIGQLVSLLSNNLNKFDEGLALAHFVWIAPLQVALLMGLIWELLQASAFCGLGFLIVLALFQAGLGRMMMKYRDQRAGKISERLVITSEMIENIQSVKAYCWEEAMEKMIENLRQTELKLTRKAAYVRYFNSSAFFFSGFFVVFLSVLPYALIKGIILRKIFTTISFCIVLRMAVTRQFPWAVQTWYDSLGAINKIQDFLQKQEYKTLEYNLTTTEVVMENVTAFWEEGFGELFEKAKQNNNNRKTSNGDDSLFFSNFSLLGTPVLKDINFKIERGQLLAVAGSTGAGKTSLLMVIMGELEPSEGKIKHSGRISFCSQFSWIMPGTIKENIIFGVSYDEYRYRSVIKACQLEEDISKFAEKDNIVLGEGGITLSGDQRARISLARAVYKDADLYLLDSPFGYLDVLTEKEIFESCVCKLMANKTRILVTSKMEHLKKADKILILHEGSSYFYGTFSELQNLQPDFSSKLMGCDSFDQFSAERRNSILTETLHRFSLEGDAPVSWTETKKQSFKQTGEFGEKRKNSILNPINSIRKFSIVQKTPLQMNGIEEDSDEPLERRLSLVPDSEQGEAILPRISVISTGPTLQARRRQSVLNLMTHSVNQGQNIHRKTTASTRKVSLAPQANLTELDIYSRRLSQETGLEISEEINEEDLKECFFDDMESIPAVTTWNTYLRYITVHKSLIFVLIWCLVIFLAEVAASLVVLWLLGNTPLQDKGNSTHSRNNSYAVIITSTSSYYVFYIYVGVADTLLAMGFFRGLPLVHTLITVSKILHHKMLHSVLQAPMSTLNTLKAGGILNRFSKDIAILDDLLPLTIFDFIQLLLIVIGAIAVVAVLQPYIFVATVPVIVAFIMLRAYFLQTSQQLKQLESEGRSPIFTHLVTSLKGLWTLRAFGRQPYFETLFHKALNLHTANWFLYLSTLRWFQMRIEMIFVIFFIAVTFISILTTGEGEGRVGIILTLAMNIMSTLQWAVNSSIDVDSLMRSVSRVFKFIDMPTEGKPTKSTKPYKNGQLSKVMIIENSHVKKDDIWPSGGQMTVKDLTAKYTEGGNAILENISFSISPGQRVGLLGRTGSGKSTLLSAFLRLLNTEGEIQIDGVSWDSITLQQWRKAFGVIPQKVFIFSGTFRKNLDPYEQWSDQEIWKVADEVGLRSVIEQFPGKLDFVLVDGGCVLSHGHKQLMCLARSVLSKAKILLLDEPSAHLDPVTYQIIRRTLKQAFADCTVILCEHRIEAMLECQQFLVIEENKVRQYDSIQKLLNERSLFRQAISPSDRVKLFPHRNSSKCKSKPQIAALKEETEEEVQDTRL
T1 sequence (P13569 with tags, fused parts or gaps DEL508-508): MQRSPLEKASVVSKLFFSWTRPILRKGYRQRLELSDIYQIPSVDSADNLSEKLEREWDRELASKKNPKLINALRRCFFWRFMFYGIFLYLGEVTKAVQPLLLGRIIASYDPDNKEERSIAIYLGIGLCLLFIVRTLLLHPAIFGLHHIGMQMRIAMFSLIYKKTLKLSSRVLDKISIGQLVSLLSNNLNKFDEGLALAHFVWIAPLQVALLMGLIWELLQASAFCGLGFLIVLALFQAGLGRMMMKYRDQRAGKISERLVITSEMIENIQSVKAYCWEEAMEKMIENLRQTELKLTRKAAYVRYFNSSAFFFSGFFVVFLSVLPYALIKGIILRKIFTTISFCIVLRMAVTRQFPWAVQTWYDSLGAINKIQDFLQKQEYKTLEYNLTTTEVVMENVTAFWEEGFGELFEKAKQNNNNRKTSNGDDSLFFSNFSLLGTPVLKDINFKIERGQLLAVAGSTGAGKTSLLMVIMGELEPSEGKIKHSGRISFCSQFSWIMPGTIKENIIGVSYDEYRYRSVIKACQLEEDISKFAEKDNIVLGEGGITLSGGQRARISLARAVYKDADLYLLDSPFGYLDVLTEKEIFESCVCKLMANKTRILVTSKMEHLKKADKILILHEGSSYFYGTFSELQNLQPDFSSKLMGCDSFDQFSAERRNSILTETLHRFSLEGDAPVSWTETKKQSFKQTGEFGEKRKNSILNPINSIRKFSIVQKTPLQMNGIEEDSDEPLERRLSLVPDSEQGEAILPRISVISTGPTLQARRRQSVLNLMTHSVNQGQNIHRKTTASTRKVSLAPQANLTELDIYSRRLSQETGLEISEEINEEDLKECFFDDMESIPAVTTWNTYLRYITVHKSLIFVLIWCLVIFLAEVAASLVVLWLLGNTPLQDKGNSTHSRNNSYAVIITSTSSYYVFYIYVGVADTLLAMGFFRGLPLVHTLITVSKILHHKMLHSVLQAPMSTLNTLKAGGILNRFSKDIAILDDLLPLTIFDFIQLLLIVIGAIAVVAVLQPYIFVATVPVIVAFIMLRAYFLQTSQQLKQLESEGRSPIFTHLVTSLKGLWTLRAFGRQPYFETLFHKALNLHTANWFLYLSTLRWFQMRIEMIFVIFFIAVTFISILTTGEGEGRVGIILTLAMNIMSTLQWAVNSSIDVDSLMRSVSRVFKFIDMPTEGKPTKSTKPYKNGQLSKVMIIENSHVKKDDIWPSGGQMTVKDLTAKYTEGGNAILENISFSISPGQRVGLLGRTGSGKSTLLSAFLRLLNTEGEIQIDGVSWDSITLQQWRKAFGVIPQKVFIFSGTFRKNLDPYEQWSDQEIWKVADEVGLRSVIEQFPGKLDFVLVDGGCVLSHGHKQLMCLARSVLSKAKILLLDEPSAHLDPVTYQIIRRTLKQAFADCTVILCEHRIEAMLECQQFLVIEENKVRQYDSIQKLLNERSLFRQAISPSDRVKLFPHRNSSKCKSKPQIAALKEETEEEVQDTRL

CC(C)C(O)C(=O)Nc1sc2c(c1C(N)=O)CC(C)(C)OC2(C)C (single isomer, unassigned) [Compound 51, 2-[[2-hydroxy-3-methyl-butanoyl]amino]-5,5,7,7-tetramethyl-4H-thieno[2,3-c]pyran-3-carboxamide]
pEC50 (CFTR ΔF508 mutant): 7.03
pEC50 (CFTR G551D mutant): 5.26

CC1(C)Cc2c(sc(NC(=O)C(CO)CC3CC3)c2C(N)=O)C(C)(C)O1 (single isomer, unassigned) [Compound 96, 2-[[2-(cyclopropylmethyl)-3-hydroxy-propanoyl]amino]-5,5,7,7-tetramethyl-4H-thieno[2,3-c]pyran-3-carboxamide]
pEC50 (CFTR ΔF508 mutant): 7.01
pEC50 (CFTR G551D mutant): 5.48

CC1(C)Cc2c(sc(NC(=O)C(CO)CC3CC3)c2C(N)=O)C(C)(C)O1 (single isomer, unassigned) [Compound 97, 2-[[2-(cyclopropylmethyl)-3-hydroxy-propanoyl]amino]-5,5,7,7-tetramethyl-4H-thieno[2,3-c]pyran-3-carboxamide]
pEC50 (CFTR ΔF508 mutant): 6.95
pEC50 (CFTR G551D mutant): 5.56

CC(C)(C)CC(O)C(=O)Nc1sc2c(c1C(N)=O)CC(C)(C)OC2(C)C (single isomer, unassigned) [Compound 109, 2-[[2-hydroxy-4,4-dimethyl-pentanoyl]amino]-5,5,7,7-tetramethyl-4H-thieno[2,3-c]pyran-3-carboxamide]
pEC50 (CFTR ΔF508 mutant): 8.36
pEC50 (CFTR G551D mutant): 5.49

CC1(C)Cc2c(sc(NC(=O)c3n[nH]cc3C3COCCO3)c2C(N)=O)C(C)(C)O1 (single isomer, unassigned) [Compound 111, N-(3-carbamoyl-5,5,7,7-tetramethyl-4H-thieno[2,3-c]pyran-2-yl)-4-[1,4-dioxan-2-yl]-1H-pyrazole-3-carboxamide]
pEC50 (CFTR ΔF508 mutant): 7.62
pEC50 (CFTR G551D mutant): 5.51

CC1(C)Cc2c(sc(NC(=O)c3n[nH]cc3C3COCCO3)c2C(N)=O)C(C)(C)O1 (single isomer, unassigned) [Compound 112, N-(3-carbamoyl-5,5,7,7-tetramethyl-4H-thieno[2,3-c]pyran-2-yl)-4-[1,4-dioxan-2-yl]-1H-pyrazole-3-carboxamide]
pEC50 (CFTR ΔF508 mutant): 7.46
pEC50 (CFTR G551D mutant): 5.74

CC1(C)Cc2c(sc(NC(=O)C3CC(F)(F)C3)c2C(N)=O)C(C)(C)O1 [Compound 47, 2-[(3,3-difluorocyclobutanecarbonyl)amino]-5,5,7,7-tetramethyl-4H-thieno[2,3-c]pyran-3-carboxamide]
pEC50 (CFTR ΔF508 mutant): 6.93
pEC50 (CFTR G551D mutant): 5.33

CC1(C)Cc2c(sc(NC(=O)C3CC3(F)F)c2C(N)=O)C(C)(C)O1 (centres unmarked) [Compound 48, 2-[(2,2-difluorocyclopropanecarbonyl)amino]-5,5,7,7-tetramethyl-4H-thieno[2,3-c]pyran-3-carboxamide]
pEC50 (CFTR ΔF508 mutant): 7.18
pEC50 (CFTR G551D mutant): 5.34

CC1(C)Cc2c(sc(NC(=O)c3cn[nH]c3)c2C(N)=O)C(C)(C)O1 [Compound 49, N-(3-carbamoyl-5,5,7,7-tetramethyl-4H-thieno[2,3-c]pyran-2-yl)-1H-pyrazole-4-carboxamide]
pEC50 (CFTR ΔF508 mutant): 6.90
pEC50 (CFTR G551D mutant): 5.25

CCC(O)C(=O)Nc1sc2c(c1C(N)=O)CC(C)(C)OC2(C)C (centres unmarked) [Compound 53, 2-(2-hydroxybutanoylamino)-5,5,7,7-tetramethyl-4H-thieno[2,3-c]pyran-3-carboxamide]
pEC50 (CFTR ΔF508 mutant): 8.00
pEC50 (CFTR G551D mutant): 5.48

CC(O)C1(C(=O)Nc2sc3c(c2C(N)=O)CC(C)(C)OC3(C)C)CC1 (centres unmarked) [Compound 59, 2-[[1-(1-hydroxyethyl)cyclopropanecarbonyl]amino]-5,5,7,7-tetramethyl-4H-thieno[2,3-c]pyran-3-carboxamide]
pEC50 (CFTR ΔF508 mutant): 8.06
pEC50 (CFTR G551D mutant): 5.48

CC1(C)Cc2c(sc(NC(=O)C(O)C3CC3)c2C(N)=O)C(C)(C)O1 (centres unmarked) [Compound 60, 2-[(2-cyclopropyl-2-hydroxy-acetyl)amino]-5,5,7,7-tetramethyl-4H-thieno[2,3-c]pyran-3-carboxamide]
pEC50 (CFTR ΔF508 mutant): 7.73
pEC50 (CFTR G551D mutant): 5.18

CC(O)c1cc(C(=O)Nc2sc3c(c2C(N)=O)CC(C)(C)OC3(C)C)n[nH]1 (centres unmarked) [Compound 61, 5-(1-Hydroxy-ethyl)-1H-pyrazole-3-carboxylic acid (3-carbamoyl-5,5,7,7-tetramethyl-4,7-dihydro-5H-thieno[2,3-c]pyran-2-yl)-amide]
pEC50 (CFTR ΔF508 mutant): 6.73
pEC50 (CFTR G551D mutant): 5.38

CCOC(=O)C1CC1C(=O)Nc1sc2c(c1C(N)=O)CC(C)(C)OC2(C)C (centres unmarked) [Compound 62, 2-(3-Carbamoyl-5,5,7,7-tetramethyl-4,7-dihydro-5H-thieno[2,3-c]pyran-2-ylcarbamoyl)-cyclopropanecarboxylic acid ethyl ester]
pEC50 (CFTR ΔF508 mutant): 6.52
pEC50 (CFTR G551D mutant): 5.48

COC/C=C/c1c[nH]nc1C(=O)Nc1sc2c(c1C(N)=O)CC(C)(C)OC2(C)C [Compound 63, N-(3-carbamoyl-5,5,7,7-tetramethyl-4H-thieno[2,3-c]pyran-2-yl)-4-[(E)-3-methoxyprop-1-enyl]-1H-pyrazole-3-carboxamide]
pEC50 (CFTR ΔF508 mutant): 7.18
pEC50 (CFTR G551D mutant): 5.93

CC1(C)Cc2c(sc(NC(=O)c3cc(C(C)(C)O)[nH]n3)c2C(N)=O)C(C)(C)O1 [Compound 64, N-(3-carbamoyl-5,5,7,7-tetramethyl-4H-thieno[2,3-c]pyran-2-yl)-5-(1-hydroxy-1-methyl-ethyl)-1H-pyrazole-3-carboxamide]
pEC50 (CFTR ΔF508 mutant): 6.78
pEC50 (CFTR G551D mutant): 5.54

COCCCc1c[nH]nc1C(=O)Nc1sc2c(c1C(N)=O)CC(C)(C)OC2(C)C [Compound 65, N-(3-carbamoyl-5,5,7,7-tetramethyl-4H-thieno[2,3-c]pyran-2-yl)-4-(3-methoxypropyl)-1H-pyrazole-3-carboxamide]
pEC50 (CFTR ΔF508 mutant): 7.57
pEC50 (CFTR G551D mutant): 5.81

CC1(C)Cc2c(sc(NC(=O)CO)c2C(N)=O)C(C)(C)O1 [Compound 66, 2-[(2-hydroxyacetyl)amino]-5,5,7,7-tetramethyl-4H-thieno[2,3-c]pyran-3-carboxamide]
pEC50 (CFTR ΔF508 mutant): 7.08
pEC50 (CFTR G551D mutant): 5.48

CC(C)C(O)CC(=O)Nc1sc2c(c1C(N)=O)CC(C)(C)OC2(C)C (centres unmarked) [Compound 67, 2-[(3-hydroxy-4-methyl-pentanoyl)amino]-5,5,7,7-tetramethyl-4H-thieno[2,3-c]pyran-3-carboxamide]
pEC50 (CFTR ΔF508 mutant): 7.37
pEC50 (CFTR G551D mutant): 5.48

CC1(C)Cc2c(sc(NC(=O)CC(O)C3CC3)c2C(N)=O)C(C)(C)O1 (centres unmarked) [Compound 68, 2-[(3-cyclopropyl-3-hydroxy-propanoyl)amino]-5,5,7,7-tetramethyl-4H-thieno[2,3-c]pyran-3-carboxamide]
pEC50 (CFTR ΔF508 mutant): 7.22
pEC50 (CFTR G551D mutant): 5.48

CC1(C)Cc2c(sc(NC(=O)CC(O)C(F)(F)F)c2C(N)=O)C(C)(C)O1 (centres unmarked) [Compound 69, 5,5,7,7-tetramethyl-2-[(4,4,4-trifluoro-3-hydroxy-butanoyl)amino]-4H-thieno[2,3-c]pyran-3-carboxamide]
pEC50 (CFTR ΔF508 mutant): 7.47
pEC50 (CFTR G551D mutant): 5.48

CC(CO)C(=O)Nc1sc2c(c1C(N)=O)CC(C)(C)OC2(C)C (centres unmarked) [Compound 70, 2-[(3-hydroxy-2-methyl-propanoyl)amino]-5,5,7,7-tetramethyl-4H-thieno[2,3-c]pyran-3-carboxamide]
pEC50 (CFTR ΔF508 mutant): 6.75
pEC50 (CFTR G551D mutant): 5.48

CC1(C)Cc2c(sc(NC(=O)c3n[nH]cc3C#N)c2C(N)=O)C(C)(C)O1 [Compound 73, N-(3-carbamoyl-5,5,7,7-tetramethyl-4H-thieno[2,3-c]pyran-2-yl)-4-cyano-1H-pyrazole-3-carboxamide]
pEC50 (CFTR ΔF508 mutant): 7.68
pEC50 (CFTR G551D mutant): 6.24

CC(C)C(CO)C(=O)Nc1sc2c(c1C(N)=O)CC(C)(C)OC2(C)C (centres unmarked) [Compound 74, 2-[[2-(hydroxymethyl)-3-methyl-butanoyl]amino]-5,5,7,7-tetramethyl-4H-thieno[2,3-c]pyran-3-carboxamide]
pEC50 (CFTR ΔF508 mutant): 7.08
pEC50 (CFTR G551D mutant): 5.48

CC(O)C1(C(=O)Nc2sc3c(c2C(N)=O)CC(C)(C)OC3(C)C)CC1 (centres unmarked) [Compound 78, 2-[[1-[1-hydroxyethyl]cyclopropanecarbonyl]amino]-5,5,7,7-tetramethyl-4H-thieno[2,3-c]pyran-3-carboxamide]
pEC50 (CFTR ΔF508 mutant): 8.19
pEC50 (CFTR G551D mutant): 5.47
